In patent publication US10294202B2, “Pyrrolidinones as herbicides” (FMC Corporation, priority 2013, dated 2019):

Columns and labels:
flatsedge, rice = assay: Test F flood (paddy) test; format: in vivo, Cyperus iria; settings: 21 d, scale 0-100
Source text: (§1) Three plastic pots (ca. 16-cm diameter) per rate were partially filled with sterilized Tama silt loam soil comprising a 35:50:15 ratio of sand, silt and clay and 2.6% organic matter. Separate plantings for each of the three pots were as follows. Seeds from the U.S. of monochoria (Monochoria vaginalis), sedge, umbrella (small-flower umbrella sedge, Cyperus difformis), bulrush, […] bulrush, Scirpus juncoides), and […] (purple […] coccinea), were planted into one 16-cm pot for each rate. Seeds from the U.S. of flatsedge, rice (rice flatsedge, Cyperus iria), sprangletop, Brdd. (bearded sprangletop, Leptochloa fascicularis), one stand of 9 or 10 water seeded rice seedlings (Rice, W.S. Jap, Oryza sativa cv. 'Japonica-[…]' or Rice, W.S. Ind, 'Indica'), and two stands of 3 or 4 seedlings of rice, transplanted (transplanted rice, Oryza sativa cv. 'Japonica-[…]') were planted into one 16-cm pot for each rate. Seeds from the U.S. of barnyardgrass (Echinochloa crus-galli), […] (common […], Alisma plantago-aquatica), and watergrass, late (late watergrass, Echinochloa oryzicola) were planted into one 16-cm pot for each rate. Plantings were sequential so that crop and weed species were at the 2.0 to 2.5-leaf stage at time of treatment. Potted plants were grown in a greenhouse with day/night temperature settings of 30/27° C., and supplemental balanced lighting was provided to maintain a 16-h photoperiod. Test pots were maintained in the greenhouse until test completion. At time of treatment, test pots were flooded to 3 cm above the soil surface, treated by application of test compounds directly to the paddy water, and then maintained at that water depth for the duration of the test. Effects of treatments on rice and weeds were visually evaluated by comparison to untreated controls after 21 d. Plant response ratings, summarized in Table F, are based on a scale of 0 to 100 where 0 is no effect and 100 is complete control. A dash (-) response means no test result.

Rice, W.S. Ind = assay: Test F flood (paddy) test; format: in vivo, Oryza sativa Indica; settings: 21 d, scale 0-100
Procedure, shortened: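 Visual injury ratings (0 no effect to 100 complete control) were taken 21 d after treatment against untreated controls. Compounds went directly into paddy water held 3 cm above soil, applied at the 2.0–2.5-leaf stage in sterilized Tama silt loam under a 30/27 °C, 16-h greenhouse regime.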

redstem = assay: Test F flood (paddy) test; format: in vivo, Ammannia coccinea; settings: 21 d, scale 0-100
Source text: as §1

velvetleaf = assay: Test E preemergence herbicide test; format: in vivo, Abutilon theophrasti; set-up: key: 0 = no effect, 100 = complete control
Procedure, shortened: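 Greenhouse preemergence test: seeds sown into silt loam received compound in a non-phytotoxic solvent mixture with surfactant. Plants grew 21 days before visual comparison with controls. Scores run from 0, no effect, to 100, complete control.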

barley (winter barley) = assay: Test C postemergence herbicide test; format: in vivo, Hordeum vulgare
Procedure, shortened: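 Greenhouse pot plants at 2 to 18 cm height (1- to 4-leaf stage) received a postemergence application of formulated test chemical. Visual ratings against untreated controls were made after 13 to 15 days, on a 0 (no effect) to 100 (complete control) scale.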

windgrass = assay: Test C postemergence herbicide test; format: in vivo, Apera spica-venti
Source text: (§2) At the same time, plants selected from these crop and weed species and also barley (winter barley, Hordeum vulgare), […]), chickweed (common chickweed, Stellaria media), deadnettle (henbit deadnettle, Lamium amplexicaule), and canarygrass (littleseed canarygrass, Phalaris minor) were planted in pots containing Redi-Earth® planting medium (Scotts Company, 14111 Scottslawn Road, Marysville, Ohio 43041) comprising spaghnum peat moss, vermiculite, wetting agent and starter nutrients and treated with postemergence applications of test chemicals formulated in the same manner. Plants ranged in height from 2 to 18 cm (1- to 4-leaf stage) for postemergence treatments. Treated plants and controls were maintained in a greenhouse for 13 to 15 days, after which time all species were compared to controls and visually evaluated. Plant response ratings, summarized in Table C, are based on a scale of 0 to 100 where 0 is no effect and 100 is complete control. A dash (-) response means no test result.

canarygrass = assay: Test C postemergence herbicide test; format: in vivo, Phalaris minor
Source text: as §2

foxtail, giant = assay: Test E preemergence herbicide test; format: in vivo, Setaria faberii; set-up: key: 0 = no effect, 100 = complete control
Source text: (§3) Seeds of plant species selected from corn (Zea mays), soybean (Glycine max), velvetleaf (Abutilon theophrasti), lambsquarters (Chenopodium album), wild poinsettia (Euphorbia heterophylla), pigweed, palmer (palmer pigweed, Amaranthus palmeri), waterhemp (common waterhemp, Amaranthus rudis), surinam grass (Brachiaria decumbens), crabgrass, large (large crabgrass, Digitaria sanguinalis), crabgrass, Brazil (Brazilian crabgrass, Digitaria horizontalis), panicum, fall (fall panicum, Panicum dichotomiflorum), foxtail, giant (giant foxtail, Setaria faberii), foxtail, green (green foxtail, Setaria viridis), goosegrass (Eleusine indica), johnsongrass (Sorghum halepense), ragweed (common ragweed, Ambrosia elatior), barnyardgrass (Echinochloa crus-galli), sandbur (southern sandbur, Cenchrus echinatus), arrowleaf […] rhombifolia), ryegrass, Italian (Italian ryegrass, Lolium multiflorum), dayflower, VA (Virginia dayflower, Commelina virginica), field bindweed (Convolvulus arvensis), morningglory (Ipomoea coccinea), nightshade (eastern black nightshade, Solanum ptycanthum), kochia (Kochia scoparia), nutsedge, yellow (yellow nutsedge, Cyperus esculentus), cocklebur (common cocklebur, Xanthium strumarium), smartweed (ladysthumb smartweed, Polygonum Persicaria) and beggarticks (hairy beggarticks, Bidens pilosa), were planted into a silt loam soil and treated preemergence with test chemicals formulated in a non-phytotoxic solvent mixture which included a surfactant. Treated plants and controls were maintained in a greenhouse for 21 days, after which time all species were compared to controls and visually evaluated. Plant response ratings, summarized in Table E, are based on a scale of 0 to 100 where 0 is no effect and 100 is complete control. A dash (-) response means no test result.

cocklebur = assay: Test E preemergence herbicide test; format: in vivo, Xanthium strumarium; set-up: key: 0 = no effect, 100 = complete control
Source text: as §3

[1] = 31 g ai/ha, scale 0 (no effect) to 100 (complete control)
[2] = 62 g ai/ha, scale 0 to 100 (0 no effect, 100 complete control)
[3] = 125 g ai/ha, scale 0 to 100 (0 no effect, 100 complete control)
[4] = 250 g ai/ha, scale 0 to 100 (0 no effect, 100 complete control)

How did the “Plant response rating, Flatsedge, Rice” value (flatsedge, rice; 62 g ai/ha) turn out when CN1CC(c2ccc(F)c(F)c2)C(C(=O)Nc2cccc(F)c2F)C1=O (stereo not drawn) [Compound 303] was run?
Its value is 0.

And the “Plant response rating, Flatsedge, Rice” value (flatsedge, rice; 125 g ai/ha)?
The value was 0.

What about the “Plant response rating, Flatsedge, Rice” value (flatsedge, rice; 250 g ai/ha) of the same compound?
The value was 0.

What about the “Plant response rating, Flatsedge, Rice” value (flatsedge, rice; 500 g ai/ha) of the same compound?
Its value is 0.

And the “Plant response rating, Rice, W.S. Ind” value (Rice, W.S. Ind; 125 g ai/ha)?
The value was 25.

And the “Plant response rating, Rice, W.S. Ind” value (Rice, W.S. Ind; 250 g ai/ha)?
The value was 40.

And the “Plant response rating, Rice, W.S. Ind” value (Rice, W.S. Ind; 500 g ai/ha)?
Its value is 70.

And the “Plant response rating, Redstem” value (redstem; 62 g ai/ha)?
The value was 0.

What about the “Plant response rating, Redstem” value (redstem; 125 g ai/ha) of the same compound?
Its value is 0.

What about the “Plant response rating, Redstem” value (redstem; 250 g ai/ha) of the same compound?
The value was 0.

What about the “Plant response rating, Redstem” value (redstem; 500 g ai/ha) of the same compound?
The value was 30.

Which “Plant response rating, Flatsedge, Rice” value (flatsedge, rice; 125 g ai/ha) does the source give for O=C1NCCC1C(=O)N(c1ccc(F)c(F)c1)c1ccccc1F (stereo not drawn) [Compound 5, N-(3,4-difluorophenyl)-N-(2-fluorophenyl)-2-oxo-3-pyrrolidinecarboxamide] here?
The value was 0.

And the “Plant response rating, Flatsedge, Rice” value (flatsedge, rice; 250 g ai/ha)?
Its value is 0.

And the “Plant response rating, Flatsedge, Rice” value (flatsedge, rice; 500 g ai/ha)?
Its value is 0.

What about the “Plant response rating, Flatsedge, Rice” value (flatsedge, rice; 1000 g ai/ha) of the same compound?
The value was 0.

And the “Plant response rating, Flatsedge, Rice” value (flatsedge, rice; 2000 g ai/ha)?
The value was 0.

And the “Plant response rating, Redstem” value (redstem; 125 g ai/ha)?
The value was 0.

What about the “Plant response rating, Redstem” value (redstem; 250 g ai/ha) of the same compound?
The value was 0.

And the “Plant response rating, Redstem” value (redstem; 500 g ai/ha)?
The value was 40.

And the “Plant response rating, Redstem” value (redstem; 1000 g ai/ha)?
Its value is 45.

And the “Plant response rating, Redstem” value (redstem; 2000 g ai/ha)?
The value was 45.

Which results are given for O=C1NCC(c2ccc(F)c(F)c2)C1C(=O)Nc1cccc(F)c1F (stereo not drawn) [Compound 17, N-(2,3-difluorophenyl)-4-(3,4-difluorophenyl)-2-oxo-3-pyrrolidinecarboxamide]?
Plant response rating, Velvetleaf (velvetleaf; 16 g ai/ha): 0; Plant response rating, Velvetleaf (velvetleaf; 31 g ai/ha): 0; Plant response rating, Velvetleaf (velvetleaf; 62 g ai/ha): 0; Plant response rating, Velvetleaf (velvetleaf; 125 g ai/ha): 0; Plant response rating, Velvetleaf (velvetleaf; 250 g ai/ha): 0; Plant response rating, Flatsedge, Rice (flatsedge, rice; 125 g ai/ha): 20; Plant response rating, Flatsedge, Rice (flatsedge, rice; 250 g ai/ha): 20; Plant response rating, Flatsedge, Rice (flatsedge, rice; 500 g ai/ha): 20; Plant response rating, Flatsedge, Rice (flatsedge, rice; 1000 g ai/ha): 35; Plant response rating, Flatsedge, Rice (flatsedge, rice; 2000 g ai/ha): 40; Plant response rating, Barley (barley (winter barley); [1]): 0; Plant response rating, Barley (barley (winter barley); [2]): 0; Plant response rating, Barley (barley (winter barley); [3]): 0; Plant response rating, Barley (barley (winter barley); [4]): 0; Plant response rating, Windgrass (windgrass; [1]): 0; Plant response rating, Windgrass (windgrass; [2]): 0; Plant response rating, Windgrass (windgrass; [3]): 0; Plant response rating, Windgrass (windgrass; [4]): 0; Plant response rating, Redstem (redstem; 125 g ai/ha): 0; Plant response rating, Redstem (redstem; 250 g ai/ha): 0; Plant response rating, Redstem (redstem; 500 g ai/ha): 0; Plant response rating, Redstem (redstem; 1000 g ai/ha): 35; Plant response rating, Redstem (redstem; 2000 g ai/ha): 40; Plant response rating, Canarygrass (canarygrass; [1]): 0; Plant response rating, Canarygrass (canarygrass; [2]): 0; Plant response rating, Canarygrass (canarygrass; [3]): 0; Plant response rating, Canarygrass (canarygrass; [4]): 0; Plant response rating, Foxtail, Giant (foxtail, giant; 16 g ai/ha): 0; Plant response rating, Foxtail, Giant (foxtail, giant; 31 g ai/ha): 35; Plant response rating, Foxtail, Giant (foxtail, giant; 62 g ai/ha): 35; Plant response rating, Foxtail, Giant (foxtail, giant; 125 g ai/ha): 95; Plant response rating, Foxtail, Giant (foxtail, giant; 250 g ai/ha): 98; Plant response rating, Cocklebur (cocklebur; 16 g ai/ha): 0; Plant response rating, Cocklebur (cocklebur; 31 g ai/ha): 0; Plant response rating, Cocklebur (cocklebur; 62 g ai/ha): 0; Plant response rating, Cocklebur (cocklebur; 125 g ai/ha): 0
